One assay concerns UO-31. Description: cells. The arrangement: species or system NCI-60 human tumour cell lines; NCI-60 five-dose growth inhibition screen, sulforhodamine B protein stain. As to conditions: Homo sapiens, UO-31, 48 h; read-out: GI50 5a. In a few lines:
(§1)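 NCI60 protocol: compounds (DMSO:glycerol stocks) tested at a single concentration of 10^−5 M for 48 h, growth read by sulforhodamine B protein staining as percent growth. For selected compounds, dose–response curves gave GI50, TGI and LC50; selectivity taken as full-panel MG-MID divided by subpanel MG-MID.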

Another assay has as its system TK-10. Description: cells. Details: species or system NCI-60 human tumour cell lines; NCI-60 five-dose growth inhibition screen, sulforhodamine B protein stain. As to conditions: Homo sapiens, TK-10, 48 h; read-out: GI50 5a. In a few lines: as §1
In a further assay the test system is NCI-H23. Put plainly: cells. Details: species or system NCI-60 human tumour cell lines; NCI-60 five-dose growth inhibition screen, sulforhodamine B protein stain. As to conditions: Homo sapiens, NCI-H23, 48 h. The essentials: as §1
For another assay, the system named is U251. Put plainly: cells. Details: species or system NCI-60 human tumour cell lines; NCI-60 five-dose growth inhibition screen, sulforhodamine B protein stain. As to conditions: Homo sapiens, U-251, 48 h. The essentials: as §1
The test system of the next assay is OVCAR-4. Put plainly: cells. The arrangement: species or system NCI-60 human tumour cell lines; NCI-60 five-dose growth inhibition screen, sulforhodamine B protein stain. As to conditions: Homo sapiens, OVCAR-4, 48 h; read-out: GI50 5a. In a few lines: as §1
For the next assay, the system named is SF-295. Put plainly: cells. Details: species or system NCI-60 human tumour cell lines; NCI-60 five-dose growth inhibition screen, sulforhodamine B protein stain. As to conditions: Homo sapiens, SF-295, 48 h. The essentials:
as §1

Another assay has as its system UACC-257. Put plainly: cells. The arrangement: species or system NCI-60 human tumour cell lines; NCI-60 five-dose growth inhibition screen, sulforhodamine B protein stain. As to conditions: Homo sapiens, UACC-257, 48 h; read-out: GI50 5a. In a few lines:
as §1

The next assay relates to OVCAR-3. Put plainly: cells. The arrangement: species or system NCI-60 human tumour cell lines; NCI-60 five-dose growth inhibition screen, sulforhodamine B protein stain. As to conditions: Homo sapiens, OVCAR-3, 48 h. The essentials:
as §1

The target of a further assay is T1, CDK-2 (Homo sapiens, UniProt P24941).
T1 construct: gene CDK2; with cyclin A2
Put plainly: Kinase-Glo MAX luminescence kinase assay, CDK-2/cyclin A2 kit. Format: biochemical. As to conditions: read-out: CDK-2/ cyclin A2 IC50 (μM) ± SD. (In general: In Kinase-Glo more light means more ATP remaining.)

Two molecules from publication PMC9721423, “Novel benzo chromene derivatives: design, synthesis, molecular docking, cell cycle arrest, and apoptosis induction in human acute myeloid leukemia HL-60 cells” (Journal of Enzyme Inhibition and Medicinal Chemistry, 2022) can be followed below.

Where two headings read alike, the source gives them in different places.

One may read the GI50 as the concentration giving 50% growth inhibition. Turning to `N=C(NO)C1=C(N)Oc2c(ccc3ccccc23)C1c1ccccc1` (centres unmarked) [5a, 2-Amino-4-phenyl-N-hydroxy-4H-benzo[h]chromene-3-carboxamidine], the GI50 came to 0.44 µM in the assay with UO-31; 16.8 µM in the assay on TK-10; 0.47 µM in the assay with NCI-H23 (read-out: GI50 5a); 0.38 µM in the assay on U251 (read-out: GI50 5a); 0.76 µM with OVCAR-4; 0.3 µM in the assay on SF-295 (read-out: GI50 5a). Also, the values for the GI50 with UACC-257 and in the assay with OVCAR-3 (read-out: GI50 5a) were 18.1 µM and 0.18 µM, respectively. At CDK-2, the IC50 turned out to be 0.171 µM.

`CC(=O)NC1=C(C#N)C(c2ccccc2)c2ccc3ccccc3c2O1` (centres unmarked) [6a, N-(3-Cyano-4-phenyl-4H-benzo[h]chromen-2-yl)acetamide]: the GI50 in the assay with NCI-H23 (read-out: GI50 6a) came out at 0.73 µM; in the assay on U251 (read-out: GI50 6a), 0.49 µM; in the assay on SF-295 (read-out: GI50 6a), 0.33 µM; with OVCAR-3 (read-out: GI50 6a), 0.34 µM. The IC50 at CDK-2 was 0.301 µM.
